Results on 15 compounds are retold here after patent US10703748B2, “Diazanaphthalen-3-yl carboxamides and preparation and use thereof” (Samumed, LLC, priority 2017, dated 2020).

The target of one assay is DYRK1A kinase (Homo sapiens, UniProt Q13627). The assay can be described thus: DYRK1A kinase activity (Ser/Thr 18 peptide Z-lyte FRET assay).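 Further: kinase activity read as coumarin/fluorescein emission ratio after development step, with unphosphorylated and phosphorylated peptide forms setting 0% and 100% controls, values from dose-response curves.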 The assay is classed as biochemical. The note with it: recombinant DYRK1A, 30 μM ATP, one hour at room temperature.
In a further assay the target is GSK3β kinase (Homo sapiens, UniProt P49841). The assay can be described thus: GSK3β kinase activity (Ser/Thr 09 peptide Z-lyte FRET assay). To be noted: recombinant kinase, 46 μM ATP, one hour at room temperature; read-out: EC50. The assay is classed as biochemical.
Sequence of GSK3β kinase (P49841 whole entry): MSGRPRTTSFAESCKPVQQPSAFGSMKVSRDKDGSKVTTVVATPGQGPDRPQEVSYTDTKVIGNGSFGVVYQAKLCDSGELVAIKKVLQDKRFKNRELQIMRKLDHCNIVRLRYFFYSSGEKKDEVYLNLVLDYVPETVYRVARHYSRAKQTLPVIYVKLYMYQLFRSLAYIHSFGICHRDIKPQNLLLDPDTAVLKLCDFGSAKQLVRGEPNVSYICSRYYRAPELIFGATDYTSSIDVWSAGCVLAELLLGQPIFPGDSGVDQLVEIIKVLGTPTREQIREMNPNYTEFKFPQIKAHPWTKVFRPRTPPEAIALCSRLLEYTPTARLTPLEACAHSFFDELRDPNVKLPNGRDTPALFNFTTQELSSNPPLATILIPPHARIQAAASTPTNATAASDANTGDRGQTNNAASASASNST
Assay [1] has as its system SW480 colon carcinoma cells. Briefly: Cell viability assay (CellTiter-Glo). To be noted: Homo sapiens; for EC50: SW480, 96 h; for inhibition at 10 µM: SW480, read-out: percent inhibition at 10 μM. Background: ATP-based viability assays read luminescence as a measure of living cells.
Assay [2] has as its system Wnt-responsive Sp5-Luc reporter in SW480 colon carcinoma cells. Briefly: Screening assay for Wnt activity (Sp5-Luc reporter gene assay). To be noted: Homo sapiens; for EC50: SW480; for inhibition at 10 µM: SW480, read-out: percent inhibition at 10 μM.
In a further assay the test system is IL-6. Briefly: IL-6 inhibition in LPS-stimulated human peripheral blood mononuclear cells (HTRF). The note with it: Homo sapiens, PBMC; for EC50: 22 h; for inhibition at 10 µM: read-out: percentage in parentheses after EC50 >10.
Assay [3] has as its system α-smooth muscle actin (aSMA) positive LL29 cells. The assay can be described thus: Inhibition of the fibrotic process: αSMA staining in TGF-β1 treated LL29 fibroblasts from IPF patients. To be noted: Homo sapiens, Fibroblast; for EC50: 96 h; for inhibition at 10 µM: read-out: percentage in parentheses after EC50 >10.

Where only a bound is given, the exact number is not on record here.

For the compound `CN1CCN(c2cc(C(=O)Nc3cc4cc(-c5ccc(N)nc5)cnc4cn3)ccn2)CC1` [Compound 3527, N-(3-(6-Aminopyridin-3-yl)-1,7-naphthyridin-6-yl)-2-(4-methylpiperazin-1-yl)isonicotinamide], the EC50 at DYRK1A kinase was 0.294 µM; at GSK3β kinase, over 10 µM; in assay [1] it was over 10 µM; in assay [2], over 10 µM; in the assay with IL-6, over 10 µM; in assay [3] it was 3.5 µM. The values for the inhibition at 10 µM (in assay [1]; in assay [2]; in the assay on IL-6) were 41.8%, 42.5% and 0%, respectively.

Regarding `O=C(Nc1cc2cc(-c3cncc(OCC4CNC4)n3)cnc2cn1)c1ccc(F)cc1` [Compound 3612, N-(3-(6-(Azetidin-3-ylmethoxy)pyrazin-2-yl)-1,7-naphthyridin-6-yl)-4-fluorobenzamide], the EC50 on DYRK1A kinase was 0.487 µM; on GSK3β kinase it was over 10 µM; in assay [1] it was 2.83 µM; in assay [2], 3.92 µM; in the assay with IL-6, 5.05 µM; in assay [3] it was 3.9 µM.

Regarding `Cn1cc(-c2cc3cc(NC(=O)C(C)(C)F)ncc3cn2)nn1` [Compound 3960, 2-Fluoro-2-methyl-N-(6-(1-methyl-1H-1,2,3-triazol-4-yl)-2,7-naphthyridin-3-yl)propanamide], the EC50 was 1.01 µM at DYRK1A kinase; 1.5 µM at GSK3β kinase; over 10 µM in assay [1]; over 10 µM in assay [2]; over 10 µM with IL-6; over 10 µM in assay [3]. In addition, the inhibition at 10 µM worked out at 38.5% in assay [1], 44.8% in assay [2], 7% in the assay on IL-6 and 23.5% in assay [3].

On to `Cn1cc(-c2cc3cc(NC(=O)C4CCN(CC5(C(F)(F)F)CC5)CC4)ncc3cn2)nn1` [Compound 3974, N-(6-(1-Methyl-1H-1,2,3-triazol-4-yl)-2,7-naphthyridin-3-yl)-1-((1-(trifluoromethyl)cyclopropyl)methyl)piperidine-4-carboxamide], for which the EC50 on DYRK1A kinase is 0.184 µM; at GSK3β kinase it was 0.305 µM; in assay [1], 4.92 µM; in assay [2], 0.76 µM; with IL-6, over 10 µM; in assay [3], 2.02 µM. For the same compound, the inhibition at 10 µM in the assay on IL-6 is 6.4%.

As to `COC1CCN(CC(=O)Nc2cc3cc(-c4cn(C)nn4)ncc3cn2)CC1` [Compound 3985, 2-(4-Methoxypiperidin-1-yl)-N-(6-(1-methyl-1H-1,2,3-triazol-4-yl)-2,7-naphthyridin-3-yl)acetamide], the EC50 at DYRK1A kinase was 0.751 µM; at GSK3β kinase, 1.24 µM; in assay [1], over 10 µM; in assay [2] it was over 10 µM; in the assay on IL-6, over 10 µM; in assay [3], 8.38 µM. In addition, the inhibition at 10 µM in assay [1] was 34.9%; in assay [2], 49.8%; in the assay with IL-6, 5.2%.

Regarding `CNC(=O)c1ccc(C(=O)Nc2cc3cc(-c4cn(C)nn4)ncc3cn2)cn1` [Compound 3999, N^2-Methyl-N^5-(6-(1-methyl-1H-1,2,3-triazol-4-yl)-2,7-naphthyridin-3-yl) pyridine-2,5-dicarboxamide], the EC50 was 0.454 µM on DYRK1A kinase; over 10 µM on GSK3β kinase; over 10 µM in assay [1]; over 10 µM in assay [2]; over 10 µM with IL-6; over 10 µM in assay [3]. Besides, the inhibition at 10 µM in assay [1] stood at 27.3%; in assay [2], 22%; with IL-6, 4.1%; in assay [3], 34.6%.

Take `CN(C)C1CCN(c2cc(C(=O)Nc3cc4cc(-c5cn(C)nn5)ncc4cn3)ccn2)CC1` [Compound 4003, 2-(4-(Dimethylamino)piperidin-1-yl)-N-(6-(1-methyl-1H-1,2,3-triazol-4-yl)-2,7-naphthyridin-3-yl)isonicotinamide]: the EC50 at DYRK1A kinase was 0.056 µM; on GSK3β kinase, 1.72 µM; in assay [1], over 10 µM; in assay [2], over 10 µM; in the assay on IL-6, over 10 µM; in assay [3] it was over 10 µM. Moreover, the inhibition at 10 µM in assay [1] stood at 50.4%; in assay [2] it was 34%; in the assay on IL-6, 3.7%; in assay [3] it was 24.6%.

For the compound `CN1CCCN(c2cc(C(=O)Nc3cc4cc(-c5cn(C)nn5)ncc4cn3)ccn2)CC1` [Compound 4006, 2-(4-Methyl-1,4-diazepan-1-yl)-N-(6-(1-methyl-1H-1,2,3-triazol-4-yl)-2,7-naphthyridin-3-yl)isonicotinamide], the concentration for a half-maximal effect (EC50) is 0.056 µM at DYRK1A kinase; 1.47 µM on GSK3β kinase; 7.87 µM in assay [1]; over 10 µM in assay [2]; over 10 µM in the assay on IL-6; over 10 µM in assay [3]. Besides, the inhibition at 10 µM turned out to be 37.7% in assay [2], 8.9% in the assay with IL-6 and 5.2% in assay [3].

With `CC(C)Oc1ccc(C(=O)Nc2cc3cc(-c4cnc5n4CCNC5)ncc3cn2)cc1` [Compound 4150, 4-Isopropoxy-N-(6-(5,6,7,8-tetrahydroimidazo[1,2-a]pyrazin-3-yl)-2,7-naphthyridin-3-yl)benzamide], the EC50 on DYRK1A kinase was 0.053 µM; at GSK3β kinase, 5.14 µM; in assay [1], over 10 µM; in assay [2] it was 2.85 µM; in the assay on IL-6, over 10 µM; in assay [3], 3.57 µM. For the same compound, the inhibition at 10 µM came out at 32.7% in assay [1] and 4.6% in the assay on IL-6.

`CC(F)(F)CN1CCC(C(=O)Nc2cc3cc(-c4cnco4)ncc3cn2)CC1` [Compound 4167, 1-(2,2-Difluoropropyl)-N-(6-(oxazol-5-yl)-2,7-naphthyridin-3-yl)piperidine-4-carboxamide]: the EC50 is 3.2 µM at DYRK1A kinase; 0.127 µM on GSK3β kinase; over 10 µM in assay [1]; over 10 µM in assay [2]; over 10 µM with IL-6; over 10 µM in assay [3]. Further, the inhibition at 10 µM in assay [1] was determined as 11.9%; in assay [2], 8.9%; with IL-6 it was 4.9%; in assay [3] it was 43%.

Turning to `Cc1nnc(-c2cc3cc(NC(=O)CN4C5CCC4CC5)ncc3cn2)s1` [Compound 4353, 2-(7-Azabicyclo[2.2.1]heptan-7-yl)-N-(6-(5-methyl-1,3,4-thiadiazol-2-yl)-2,7-naphthyridin-3-yl)acetamide], the EC50 on DYRK1A kinase is 0.529 µM; on GSK3β kinase, 2.45 µM; in assay [1], over 10 µM; in assay [2] it was over 10 µM; in the assay on IL-6 it was over 10 µM; in assay [3] it was over 10 µM. In addition, the inhibition at 10 µM in assay [1] came out at 4.1%; in assay [2], 2.1%; in the assay with IL-6, 8.5%; in assay [3], 26.4%.

On to `Cc1nnc(-c2cc3cc(NC(=O)c4ccnc(N5CCN(C)CC5)c4)ncc3cn2)s1` [Compound 4377, N-(6-(5-Methyl-1,3,4-thiadiazol-2-yl)-2,7-naphthyridin-3-yl)-2-(4-methylpiperazin-1-yl)isonicotinamide], for which the EC50 at DYRK1A kinase is 0.253 µM; on GSK3β kinase, over 10 µM; in assay [1] it was 5.4 µM; in assay [2], over 10 µM; in the assay on IL-6, over 10 µM; in assay [3], 2.96 µM. In addition, the inhibition at 10 µM in assay [2] turned out to be 28.6%; with IL-6 it was 5.7%.

For the compound `CN1CCN(c2cc(C(=O)Nc3cc4cc(-c5cncc(N)c5)ncc4cn3)ccn2)CC1` [Compound 4432, N-(6-(5-Aminopyridin-3-yl)-2,7-naphthyridin-3-yl)-2-(4-methylpiperazin-1-yl)isonicotinamide], the EC50 at DYRK1A kinase is 0.002 µM; on GSK3β kinase it was over 10 µM; in assay [1], 2.03 µM; in assay [2], 2 µM; in the assay on IL-6, over 10 µM; in assay [3], 1.72 µM. The inhibition at 10 µM in the assay on IL-6 was 1.4%.

Consider `Cn1cc(-c2ccc3cnc(NC(=O)[C@H]4CC[C@H](NC(=O)OC(C)(C)C)CC4)cc3n2)cn1` [Compound 4537, tert-Butyl (trans-4-((2-(1-methyl-1H-pyrazol-4-yl)-1,6-naphthyridin-7-yl)carbamoyl)cyclohexyl)carbamate], for which the EC50 at DYRK1A kinase is 0.035 µM; at GSK3β kinase, 0.543 µM; in assay [1], over 10 µM; in assay [2] it was over 10 µM; with IL-6, over 10 µM; in assay [3] it was 5.27 µM. The results for the inhibition at 10 µM (in assay [1]; in assay [2]; in the assay on IL-6) were 4.7%, 25.3% and 3%, respectively.

With `CN1CC(COc2cncc(-c3ccc4cnc(NC(=O)c5ccc(F)cc5)cc4n3)n2)C1` [Compound 4564, 4-fluoro-N-(2-(6-((1-methylazetidin-3-yl)methoxy)pyrazin-2-yl)-1,6-naphthyridin-7-yl)benzamide], the EC50 at DYRK1A kinase was 1.03 µM; at GSK3β kinase, over 10 µM; in assay [1] it was over 10 µM; in assay [2], over 10 µM; in the assay with IL-6, over 10 µM; in assay [3], over 10 µM. The inhibition at 10 µM in assay [1] amounted to 21.1%; in assay [2], 33.3%; in the assay with IL-6 it was 0%; in assay [3], 26.8%.

By EC50 is commonly meant the concentration needed to bring the measured effect to its halfway point.
